# Patent publication US7612035B2, “Inhibition of mitogen-activated protein kinase (MAPK) pathway: a selective therapeutic strategy against melanoma” (Van Andel Research Institute, priority 2000, dated 2009)
# “Also recorded” adds a separate entry of the source. Where two headings read alike, the source gives them in different places. Marks after values point to notes of the source that are not given here.
# How the values were obtained:
# SK-MEL-5 [1] = details: mouse, in vivo, ip, 40 mg/kg/day; cited from earlier work
# MALME-3M [2] = details: mouse, in vivo, ip, 90 mg/kg/day; cited from earlier work
# UACC-62 [3] = details: mouse, in vivo, ip, 90 mg/kg/day; cited from earlier work
# melanoma xenografts = details: mouse, in vivo, ip; cited from earlier work
# SK-MEL-2 [4] = details: mouse, in vivo, ip, 90 mg/kg/day; cited from earlier work
# LOX-IMVI [5] = details: mouse, in vivo, ip, cited from earlier work
# M14 = details: mouse, in vivo, ip, 90 mg/kg/day; cited from earlier work
# UACC-257 [6] = details: mouse, in vivo, ip, 90 mg/kg/day; cited from earlier work
# MDA-MB-435 and MDA-N = test: NCI-ADS growth inhibition, breast carcinoma lines; type: cell-based, human; details: NCI-ADS breast carcinoma lines MDA-MB-435 and MDA-N
# SK-MEL-28 = type: cell-based, human; details: 72 h, average of four replicates minus background (PA alone or DMSO), LF 0.1 μg/ml with PA, PD98059 20 μM every 24 h, U0126 10 μM single dose
# MALME-3M [7] = test: Cell cycle profile by flow cytometry; type: cell-based, human; details: within 24 hours of treatment
# Description: (§1) Cell cycle profiles and DNA content were analyzed by flow cytometry, as previously described (Koo, H.-M. et al. Canc Res 59:6057-6062 (1999)). Total cells including floating cells were harvested, washed in cold PBS and fixed in cold 70% ethanol overnight. The fixed cells were rehydrated in PBS containing 1% fetal bovine serum, washed in PBS, incubated with DNase-free RNase at room temperature for 30 min, and then stained with 50 μg/ml propidium iodide overnight at 4° C. in the dark. The stained samples were analyzed in a FACSCalibur (Becton Dickinson Biosciences) for DNA content and cell cycle profiles.
# In most cell types, activation of the MAPK pathway is required for progression through the restriction point in G1 phase of the cell cycle (reviewed in Roussel et al., supra).
# MAPK (ERK) = test: Active phospho-MAPK immunoblot in normal melanocytes; type: cell-based, human; details: 72 hours with PD98059 (and U0126) or 96 hours with LF
# Description: (§2) Western blot analysis was performed as described previously (Koo et al., 1999, supra). The primary antibodies used were anti-active MAPK from Promega, and anti-ERK1 (K-23) and anti-ERK2 (C-14) from Santa Cruz Biotechnology.
# SK-MEL-2 [8] = type: cell-based, human; details: 72 h, average of four replicates minus background (PA alone or DMSO), LF 0.1 μg/ml with PA, PD98059 20 μM every 24 h, U0126 10 μM single dose
# UACC-257 [9] = type: cell-based, human; details: 72 h, average of four replicates minus background (PA alone or DMSO), LF 0.1 μg/ml with PA, PD98059 20 μM every 24 h, U0126 10 μM single dose
# SK-MEL-5 [10] = type: cell-based, human; details: 72 h, average of four replicates minus background (PA alone or DMSO), LF 0.1 μg/ml with PA, PD98059 20 μM every 24 h, U0126 10 μM single dose
# ERK1 and 2 = test: Active phospho-MAPK immunoblot in MALME-3M cells; type: cell-based, human
# Description: as §2
# MALME-3M [11] = type: cell-based, human; details: 72 h, average of four replicates minus background (PA alone or DMSO), LF 0.1 μg/ml with PA, PD98059 20 μM every 24 h, U0126 10 μM single dose
# [12] = tested on: normal human melanocytes (NHEM); type: cell-based; details: for % Apoptosis: Normal Melanocytes, treatment for 72 hours; for apoptosis (in words): normal melanocytes
# LOX-IMVI [13] = type: cell-based, human; details: 72 h, average of four replicates minus background (PA alone or DMSO), LF 0.1 μg/ml with PA, PD98059 20 μM every 24 h, U0126 10 μM single dose
# UACC-62 [14] = type: cell-based, human; details: 72 h, average of four replicates minus background (PA alone or DMSO), LF 0.1 μg/ml with PA, PD98059 20 μM every 24 h, U0126 10 μM single dose
# M14-MEL = type: cell-based, human; details: for % Apoptosis: M14-MEL Melanoma Cells, treatment for 72 hours; for Apoptosis (%) Experiment I: M14-MEL, 72 h, average of four replicates minus background (PA alone or DMSO), LF 0.1 μg/ml with PA, PD98059 20 μM every 24 h, U0126 10 μM single dose
# [15] = tested on: normal human melanocytes (NHEM); test: Cell cycle profile by flow cytometry; type: cell-based; details: 72 hours with PD98059 (and U0126) or 96 hours with LF
# Description: as §1
# MAPK (ERK1/2) = test: Western blot with phospho-specific anti-ERK antibody in M14-MEL cells; type: cell-based, human; details: M14-MEL melanoma cells
# Description: as §2
# [16] = 72 hours with PD98059 (and U0126) or 96 hours with LF
compound,measurement,setting,value
COc1cccc2c1[C@H](CO)N1[C@@H](C#N)[C@@H]3C[C@@H](C(=O)O)[C@H]([C@@H]1C2)N3C [DX-52-1],Growth delay: %(T − C)/C,SK-MEL-5 [1],27%
same,Optimal % T/C,SK-MEL-5 [1],49 (33) %
same,Regressions Complete,SK-MEL-5 [1],0/6
same,Regressions Partial,SK-MEL-5 [1],0/6
same,day on which the optimal (minimum) T/C was attained,SK-MEL-5 [1],49 (33)
same,Growth delay: %(T − C)/C,MALME-3M [2],4%
same,Optimal % T/C,MALME-3M [2],64 (72) %
same,Regressions Complete,MALME-3M [2],0/6
same,Regressions Partial,MALME-3M [2],0/6
same,day on which the optimal (minimum) T/C was attained,MALME-3M [2],64 (72)
same,Growth delay: %(T − C)/C,UACC-62 [3],185%
same,Optimal % T/C,UACC-62 [3],18 (34) %
same,Regressions Complete,UACC-62 [3],0/7
same,Regressions Partial,UACC-62 [3],0/7
same,day on which the optimal (minimum) T/C was attained,UACC-62 [3],18 (34)
same,melanoma xenografts with statistically significant antitumor activity,melanoma xenografts,5/7
same,Growth delay: %(T − C)/C,SK-MEL-2 [4],118%
same,Optimal % T/C,SK-MEL-2 [4],10 (32) %
same,Regressions Complete,SK-MEL-2 [4],2/6
same,Regressions Partial,SK-MEL-2 [4],0/6
same,day on which the optimal (minimum) T/C was attained,SK-MEL-2 [4],10 (32)
same,Growth delay: %(T − C)/C,LOX-IMVI [5]; 60 mg/kg/day,389%
same,Optimal % T/C,LOX-IMVI [5]; 60 mg/kg/day,−100^b %
same,Regressions Complete,LOX-IMVI [5]; 60 mg/kg/day,4/6
same,Regressions Partial,LOX-IMVI [5]; 60 mg/kg/day,016
same,Growth delay: %(T − C)/C,LOX-IMVI [5]; 90 mg/kg/day,181%
same,Optimal % T/C,LOX-IMVI [5]; 90 mg/kg/day,−54%
same,Regressions Complete,LOX-IMVI [5]; 90 mg/kg/day,2/10
same,Regressions Partial,LOX-IMVI [5]; 90 mg/kg/day,3/10
same,Growth delay: %(T − C)/C,M14,56%
same,Optimal % T/C,M14,19 (26) %
same,Regressions Complete,M14,0/6
same,Regressions Partial,M14,0/6
same,day on which the optimal (minimum) T/C was attained,M14,19 (26)
same,Growth delay: %(T − C)/C,UACC-257 [6],35%
same,Optimal % T/C,UACC-257 [6],12 (27) %
same,Regressions Complete,UACC-257 [6],0/6
same,Regressions Partial,UACC-257 [6],0/6
same,day on which the optimal (minimum) T/C was attained,UACC-257 [6],12 (27)
COc1cccc(-c2cc(=O)c3ccccc3o2)c1N [PD98059],sensitivity to growth inhibition,MDA-MB-435 and MDA-N,as sensitive as melanoma cell lines
same,Apoptosis (%) Experiment I,SK-MEL-28,2.5%
same,cell cycle progression,MALME-3M [7],noticeably blocked in the G1 phase
same,MAPK (ERK) activation,MAPK (ERK),inhibited
same,Apoptosis (%) Experiment I,SK-MEL-2 [8],23.4%
same,Apoptosis (%) Experiment I,UACC-257 [9],19.7%
same,Apoptosis (%) Experiment I,SK-MEL-5 [10],9.1%
same,activation of ERK1 and 2,ERK1 and 2,inhibited
same,Apoptosis (%) Experiment I,MALME-3M [11],47.9%
same,% Apoptosis,[12]; 20 μM,0%
same,apoptosis (in words),[12]; [16],no apoptosis was observed
same,apoptosis (in words),[12]; PD98059 for 96 hours,apoptosis was not detected
same,Apoptosis (%) Experiment I,LOX-IMVI [13],3.6%
same,Apoptosis (%) Experiment I,UACC-62 [14],30.5%
same,% Apoptosis,M14-MEL; 20 μM,38.9%
same,Apoptosis (%) Experiment I,M14-MEL,53.0%
same,cell cycle response,[15],induced G1 arrest
O=C(NOCC1CC1)c1ccc(F)c(F)c1Nc1ccc(I)cc1Cl [PD184352],% Apoptosis,[12]; 2 μM,0.3%
same,activation of MAPK (ERK1/2),MAPK (ERK1/2),completely blocked
same,% Apoptosis,M14-MEL; 1 μM,24.5%
same,% Apoptosis,M14-MEL; 5 μM,37.3%
same,% Apoptosis,M14-MEL; 10 μM,48.8%
same,% Apoptosis,M14-MEL; 20 μM,71.0%
same,potency relative to PD98059,"M14-MEL; apoptosis in M14-MEL, 72 hours","more potent, possibly by several fold"
same,selectivity melanoma cells vs normal human melanocytes,"M14-MEL; apoptosis, 72 hours",selectively cytotoxic to human melanoma cells
N#CC(=C(/N)Sc1ccccc1N)/C(C#N)=C(\N)Sc1ccccc1N [U0126],Apoptosis (%) Experiment I,SK-MEL-28,1.1%
same,MAPK (ERK) activation,MAPK (ERK),inhibited
same,Apoptosis (%) Experiment I,SK-MEL-2 [8],35.4%
same,Apoptosis (%) Experiment I,UACC-257 [9],4.7%
same,Apoptosis (%) Experiment I,SK-MEL-5 [10],1.9%
same,Apoptosis (%) Experiment I,MALME-3M [11],48.3%
same,apoptosis (in words),[12]; [16],no apoptosis was observed; also recorded: did not induce apoptosis
same,Apoptosis (%) Experiment I,LOX-IMVI [13],2.3%
same,Apoptosis (%) Experiment I,UACC-62 [14],8.3%
same,Apoptosis (%) Experiment I,M14-MEL,36.0%
same,cell cycle response,[15],induced G1 arrest
